Measurements published in patent US4395400A, “Nonapeptide, a process for its preparation, an agent containing it and its use” (Hoechst Aktiengesellschaft, priority 1980, dated 1983).

Key:
[1] = system: gonadoliberin biological action; settings: D-aminoacid in position 6 with tert.-butyl type protective group; cited from earlier work
[2] = solubility in aqueous buffer solutions; assay type: physicochemical
Excerpt: This makes the compound suitable for intranasal administration, for which, as shown by experience, solubility can be the limiting factor.

[3] = absorption from the gastro-intestinal tract; assay type: in vivo; settings: humans
Protocol: The preferred method of administration in humans is intranasal administration, since absorption of the compound from the gastro-intestinal tract is only slight and parenteral administration is inappropriate for the patient. About 0.1 ml of a buffer solution, in which the necessary quantity of the active compound is dissolved, is sprayed into the nose via a spray jet, by means of a dosing atomizer.

Compound	biological action of position-6 substituted gonadoliberin derivative [1]	solubility in aqueous buffer solutions ([2]; aqueous buffer solutions)	solubility compared with other gonadoliberin analogs ([2]; versus analogs of comparable effectiveness, particularly the D-Trp^6 or D-His(Bzl)^6 analogs)	absorption from the gastro-intestinal tract [3]
CC(C)(C)OC[C@@H](N)C(=O)O [O-tert.-butyl-D-serine]	strongest biological action	–	–	–
CCNC(=O)[C@@H]1CCCN1C(=O)[C@H](CCCNC(=N)N)NC(=O)[C@H](CC(C)C)NC(=O)[C@@H](CCCC(=O)OC(C)(C)C)NC(=O)[C@H](Cc1ccc(O)cc1)NC(=O)[C@H](CO)NC(=O)[C@H](Cc1c[nH]c2ccccc12)NC(=O)[C@H](Cc1c[nH]cn1)NC(=O)[C@@H]1CCC(=O)N1 [nonapeptide]	–	good solubility	appreciably greater	only slight
